Results published in article PMC8957246, “Synthesis and diverse biological activity profile of triethylammonium isatin-3-hydrazones” (ADMET & DMPK, 2022).

What was measured:
Assay type in all cases: cell-based
[1] = tested on: Candida albicans ATCC 10231; assay: Antimicrobial activity, serial dilution (MIC/MBC), Ca; conditions: ATCC10231
Procedure: (§1) The antimicrobial activity of the test compounds was determined by the serial dilution technique in Muller Hinton Broth 2 and in Sabouradu broth for fungi. The cultures used for testing included Gram-positive bacteria: Staphylococcus aureus ATCC 6538P FDA 209P, Bacillus cereus ATCC 10702 NCTC 8035, Enterococcus faecalis ATCC 29212; Gram-negative bacteria: Escherichia coli ATCC 25922, Pseudomonas aeruginosa ATCC 9027, and fungi: Trichophyton mentagrophytes var. gypseum 1773, and Candida albicans ATCC 10231; methicillin-resistant strains of S. aureus (MRSA) was obtained from hospital patients with chronic tonsillitis in the Republican Clinical Hospital (Kazan, Russia). The bacterial load was 3.0 × 10^5 cfu/ml. The fungi load was 2.0 × 10^3 cfu/ml. The results were recorded every 24 h for 5-7 days. Cultures were incubated at 37 °C. The experiment was repeated three times. […] The minimum inhibitory concentration (MIC) was defined as the minimum concentration of a compound that inhibits the growth of the corresponding test microorganism. The growth of bacteria, as well as the absence of the growth due to the bacteriostatic action of compounds, were recorded.
(§2) Synthesized compounds were further evaluated for antimicrobial activity against test microorganisms: Staphylococcus aureus ATCC 209p (Sa), Bacillus cereus ATCC 8035 (Bc), Escherichia coli CDC F-50 (Ec), Enterococcus faecalis (Ef), Pseudomonas aeruginosa ATCC 9027, Aspergillus niger BKMF-1119, Trichophyton mentagrophytes var. gypseum 1773, and Candida albicans 855-653 including methicillin-resistant strains of S. aureus (MRSA 1 and MRSA 2). The minimum inhibitory (MIC) and minimum bactericidal (MBC) concentrations of ammonium salts were determined against these pathogens (Table 1). Due to the lack of activity of compounds 3a-g against Gram-negative bacterial strains and some fungi, the corresponding data are not shown.

[2] = tested on: Phytophthora cactorum VKM F-985; assay: Fungicidal activity, radial growth inhibition, P. cactorum
Text: (§3) Plant pathogenic bacterial strains Micrococcus luteus B-109, Pectobacterium atrosepticum 1043, Pectobacterium carotovorum subsp. carotovorum MI, Pseudomonas fluorescens EL-2.1, and Xanthomonas campestris B-610 and fungal strain Fusarium oxysporum IBPPM 543 were obtained from the specialized scientific culture collection of IBPPM RAS (WFCC no. 975, WDCM no. 1021) (CM IBPPM). Pathogenic fungus Phytophthora cactorum VKM F-985 provided by the All-Russian Collection of Microorganisms (VKM) and deposited at A.E. Favorsky Irkutsk Institute of Chemistry, SB RAS, was also used as test organism. Bacteria M. luteus, P. carotovorum subsp. carotovorum, P. atrosepticum, and Ps. fluorescens were grown in meat-peptone medium (BP), and X. campestris was grown in the medium with glucose, yeast extract, and calcium carbonate (GYCa). Solid media contained Bacto agar (18 g/L); pH was adjusted to 7.2-7.4. All bacterial cultures were grown at 28°C. The mycelial cultures of F. oxysporum and P. cactorum were grown on a glucose-peptone-yeast (GPY) nutrient medium at 27 °C. For inoculum preparation, both fungal strains were initially grown on the agar GPY in Petri dishes and then transferred into the seed medium by punching out 5 mm of the agar plate culture with a self-designed cutter.
(§4) For the fungicidal activity analysis, radial growth (colony diameters) of the fungi on a solid medium in the absence and in the presence of the compounds 3a,c-g solutions at various concentrations were compared. The method consisted of the following: sterile, melted and then cooled to about 60°C GPY agar medium (20.0 ml) was mixed with the precisely measured volumes of the solutions under question, and poured into a sterile Petri dish (90 mm i.d.). After solidification of GPY agar, the media were inoculated by the fungus using 10-day-old cultures of F. oxysporum or P. cactorum. The inoculation was done by transferring a 5-mm (i.d.) GPY-agar block covered with mycelium to the center of the Petri dish followed by incubation in a thermostat at 27°C. The fungicidal effect was scored by the size of mycelium colony on a Petri dish compared to the control without fungicidal admixtures to GPY agar. Each treatment was performed in at least four replicates in two independent experiments. The observation period ended when the control Petri dish was filled with mycelium (usually after 12 days). The inhibition of the phytopathogen colony growth by the compounds 3a,c-g or fludioxonil solutions was calculated as a percentage by which the mycelium radial propagation was decreased compared to the unaffected control, the latter was taken as 100 % of growth (or zero percent of inhibition). The EC50 value was calculated as the compound concentration at which the radial growth of the fungus colony was decreased by 50 % relative to the non-fungicidal control, according to the formula EC50 = 50C/I based on the approach developed e.g., in [34, 35].
(§5) The solutions of tested compounds were prepared with a concentration of 2 mmol/l (stock solution). For comparison, test compounds were also commonly applied disinfecting agents and antibiotics.

[3] = tested on: Fusarium oxysporum IBPPM 543; assay: Fungicidal activity, radial growth inhibition, F. oxysporum
Text: as §3, §4, §5

[4] = tested on: Enterococcus faecalis ATCC 29212; assay: Antimicrobial activity, serial dilution (MIC/MBC), Ef; conditions: ATCC29212
Procedure: as §1, §2

[5] = tested on: Staphylococcus aureus ATCC 6538P FDA 209P; assay: Antimicrobial activity, serial dilution (MIC/MBC), Sa; conditions: Staphylococcus aureus
Procedure: as §1, §2

[6] = tested on: Bacillus cereus ATCC 10702 NCTC 8035; assay: Antimicrobial activity, serial dilution (MIC/MBC), Bc; conditions: Bacillus cereus
Procedure: as §1, §2

[7] = C 7.15 μg/mL, age of the fungus 3 days
[8] = C 7.15 μg/mL, age of the fungus 5 days
[9] = C 7.15 μg/mL, age of the fungus 7 days
[10] = C 7.15 μg/mL, age of the fungus 9 days
[11] = C 14.30 μg/mL, age of the fungus 3 days
[12] = C 14.30 μg/mL, age of the fungus 5 days
[13] = C 14.30 μg/mL, age of the fungus 7 days
[14] = C 14.30 μg/mL, age of the fungus 9 days

CC[N+](CC)(CC)CC(=O)N/N=C1\C(=O)N(Cc2cc(C(C)(C)C)c(O)c(C(C)(C)C)c2)c2c(Br)cc(Cl)cc21 [Compound 3g, 2-(2-(1-(3,5-Di-tert-butyl-4-hydroxybenzyl)-5-chloro-7-bromo-2-oxoindolin-3-ylidene)hydrazinyl)-N,N,N-triethyl-2-oxoethanammonium bromide]
MBC [1]: > 500 µM
MIC [1]: > 500 µM
Inhibition value, I (%) ([2]; C 1.43 μg/mL, age of the fungus 3 days): 30%
Inhibition value, I (%) ([2]; C 1.43 μg/mL, age of the fungus 5 days): 29%
Inhibition value, I (%) ([2]; C 1.43 μg/mL, age of the fungus 7 days): 15%
Inhibition value, I (%) ([2]; C 1.43 μg/mL, age of the fungus 9 days): 1%
Inhibition value, I (%) ([2]; C 1.43 μg/mL, age of the fungus 12 days): 0%
Inhibition value, I (%) ([2]; C 3.58 μg/mL, age of the fungus 3 days): 38%
Inhibition value, I (%) ([2]; C 3.58 μg/mL, age of the fungus 5 days): 29%
Inhibition value, I (%) ([2]; C 3.58 μg/mL, age of the fungus 7 days): 22%
Inhibition value, I (%) ([2]; C 3.58 μg/mL, age of the fungus 9 days): 5%
Inhibition value, I (%) ([2]; C 3.58 μg/mL, age of the fungus 12 days): 0%
Inhibition value, I (%) [2, 7]: 40%
Inhibition value, I (%) [2, 8]: 33%
Inhibition value, I (%) [2, 9]: 26%
Inhibition value, I (%) [2, 10]: 14%
Inhibition value, I (%) ([2]; C 7.15 μg/mL, age of the fungus 12 days): 11%
Inhibition value, I (%) ([2]; C 10.73 μg/mL, age of the fungus 3 days): 48%
Inhibition value, I (%) ([2]; C 10.73 μg/mL, age of the fungus 5 days): 43%
Inhibition value, I (%) ([2]; C 10.73 μg/mL, age of the fungus 7 days): 41%
Inhibition value, I (%) ([2]; C 10.73 μg/mL, age of the fungus 9 days): 31%
Inhibition value, I (%) ([2]; C 10.73 μg/mL, age of the fungus 12 days): 26%
Inhibition value, I (%) [2, 11]: 51%
Inhibition value, I (%) [2, 12]: 48%
Inhibition value, I (%) [2, 13]: 46%
Inhibition value, I (%) [2, 14]: 41%
Inhibition value, I (%) ([2]; C 14.30 μg/mL, age of the fungus 12 days): 28%
EC50 ([2]; Phytophthora cactorum, 168 h, day 7, EC50 = 50C/I, read-out: EC50, μg/mL at day 7): 4.77 µg/mL
Inhibition value, I (%) [3, 7]: 0%
Inhibition value, I (%) [3, 8]: 4%
Inhibition value, I (%) [3, 9]: 5%
Inhibition value, I (%) [3, 10]: 4%
Inhibition value, I (%) [3, 11]: 9%
Inhibition value, I (%) [3, 12]: 4%
Inhibition value, I (%) [3, 13]: 11%
Inhibition value, I (%) [3, 14]: 5%
Inhibition value, I (%) ([3]; C 28.60 μg/mL, age of the fungus 3 days): 11%
Inhibition value, I (%) ([3]; C 28.60 μg/mL, age of the fungus 5 days): 7%
Inhibition value, I (%) ([3]; C 28.60 μg/mL, age of the fungus 7 days): 26%
Inhibition value, I (%) ([3]; C 28.60 μg/mL, age of the fungus 9 days): 10%
Inhibition value, I (%) ([3]; C 42.90 μg/mL, age of the fungus 3 days): 31%
Inhibition value, I (%) ([3]; C 42.90 μg/mL, age of the fungus 5 days): 27%
Inhibition value, I (%) ([3]; C 42.90 μg/mL, age of the fungus 7 days): 32%
Inhibition value, I (%) ([3]; C 42.90 μg/mL, age of the fungus 9 days): 13%
EC50 ([3]; Fusarium oxysporum, IBPPM543, 168 h, day 7, EC50 = 50C/I, read-out: EC50, μg/mL at day 7): 55 µg/mL
MBC [4]: > 500 µM
MIC [4]: > 500 µM
MIC [5]: 11 ± 0.9 µM
MBC ([5]; read-out: MBC (converted)): 21.9 µM
MBC [6]: 87.4 µM
MIC ([6]; read-out: MIC): 43.7 ± 3.5 µM
